We go through 22 compounds from PubChem BioAssay (NCI).

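In this assay, cells in 96-well plates receive the compound at five concentrations for 48 hours. Endpoints are linearly interpolated between the surrounding concentrations. TGI marks complete inhibition of growth.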 Bounds are passed on as bounds.

Holding throughout (experiment): NCI anticancer screen, dose series, 48 h
The subject of assay [1] is MDA-MB-231 breast.
For assay [2], the system named is A498 renal.
The subject of assay [3] is RPMI-8226 leukemia.
Assay [4] concerns SK-OV-3 ovarian.
The test system of assay [5] is HCT-116 colon.
The test system of assay [6] is SW-620 colon.
Assay [7] concerns NCI-H226 lung.
For assay [8], the system named is MDA-N.
Assay [9] concerns PC-3 prostate.
In assay [10] the test system is A549 NSCLC.
The test system of assay [11] is U251 CNS.
For assay [12], the system named is ACHN renal.

As for `O=C1CSc2nc3ccccc3n2/C=N\N1`, the TGI in assay [1], in assay [2], in assay [3], in [4], in assay [5] and in assay [6] was > 100 µM each time. Besides, the TGI in assay [7], in assay [8], in assay [9], in assay [10], in assay [11] and in assay [12] was > 100 µM throughout.
For `COC(=O)C(C)(N=Cc1ccccc1)c1ccccc1` (centres undefined), the TGI in assay [1], in assay [2], in assay [3], in [4], in assay [5] and in assay [6] was > 100 µM throughout. Besides, the TGI in assay [7], in assay [8], in [9], in assay [10], in [11] and in assay [12] was > 100 µM throughout.
As to `CN(C)c1nc(NC23CC4CC(CC(C4)C2)C3)nc(N(C)C)n1`, the TGI is > 57 µM in assay [1]; > 100 µM in [2]; 12.7 µM in assay [3]; > 100 µM in assay [4]; > 57.1 µM in assay [5]; > 56.2 µM in [6]. Moreover, the TGI is > 77.6 µM in [7]; > 45.9 µM in [8]; > 42.2 µM in [9]; > 39.4 µM in assay [10]; > 55.3 µM in [11]; > 100 µM in assay [12].
In the case of `CCOC(=O)N1CCN(c2ccc3c(C)cc(C)nc3n2)CC1`, the TGI in [1], in [2], in [3], in assay [4], in [5] and in [6] was > 100 µM throughout. For the same compound, the TGI in assay [7], in assay [8], in [9], in assay [10], in [11] and in [12] was > 100 µM in each case.
Turning to `CC(C)SC(C)(NC(=O)C1C(C)(C)CCC1(C)C)C(=O)O` (centres undefined), the TGI in assay [1], in assay [2], in [3], in assay [4], in assay [5] and in assay [6] was > 100 µM in each case. For the same compound, the TGI in assay [7], in [8], in assay [9], in assay [10], in assay [11] and in [12] was > 100 µM in each case.
Take `Cn1ccn2c3nc4ccccc4nc3c(=O)c(C#N)c12`: the TGI in assay [1], in assay [2], in assay [3], in assay [4], in assay [5] and in assay [6] was > 100 µM in each case. For the same compound, the TGI in assay [7], in assay [8], in [9], in assay [10], in assay [11] and in assay [12] was > 100 µM each time.
`CCOC(=O)/C(=C\c1ccc(N(C)C)cc1)S(=O)(=O)C(F)(F)C(F)(F)C(F)(F)C(F)(F)F`: the TGI in assay [1], in assay [2], in assay [3], in assay [4], in assay [5] and in assay [6] was > 100 µM throughout. Besides, the TGI in [7], in [8], in [9], in assay [10], in assay [11] and in assay [12] was > 100 µM throughout.
Turning to `O=C(/C=C/c1cccc(Br)c1)c1cccs1`, the TGI was determined as 38.8 µM in assay [1]; 33.2 µM in [2]; 5.42 µM in assay [3]; 46.8 µM in [4]; 18 µM in assay [5]; 27.5 µM in assay [6]. The TGI in [7] stood at 32.7 µM; in assay [8] it was 22.3 µM; in [9], 31.6 µM; in [10], 36.2 µM; in [11], 26.8 µM; in [12], 39.8 µM.
As for `COC(=O)/C=C(\C)C(=O)N(C)c1ccccc1I`, the TGI in assay [1], in assay [2], in assay [3], in assay [4], in [5] and in assay [6] was > 100 µM each time. Further, the TGI in assay [7], in assay [8], in [9], in assay [10], in [11] and in assay [12] was > 100 µM each time.
For the compound `N#Cc1c(SCc2ccccc2)nc(-c2ccccc2)[nH]c1=S`, the TGI in assay [1] was > 100 µM; in [2] it was 63.8 µM; in [3] it was 89.9 µM; in assay [4], 60.1 µM; in [5], 51.8 µM; in assay [6], 60 µM. In addition, the TGI in assay [7] was 70.3 µM; in assay [8], 67.1 µM; in [9], 35.2 µM; in assay [10] it was > 100 µM; in assay [11], 45.1 µM; in [12], 63.3 µM.
For `Clc1ccc(Cc2nc3ccc(CCN4CCN(c5ccccc5)CC4)cc3[nH]2)cc1`, the TGI was 27.3 µM in [1]; 32.5 µM in assay [2]; 54.5 µM in assay [3]; 38.4 µM in [4]; 24.6 µM in assay [5]; > 100 µM in assay [6]. Further, the TGI is 51.3 µM in assay [7]; 30.6 µM in assay [8]; > 100 µM in assay [9]; 33 µM in assay [10]; 26.5 µM in assay [11]; > 100 µM in assay [12].
For `COc1ccccc1C1SCC(=O)N1c1ccc(-c2ccc(-n3c(-c4ccccc4)nc4ccccc4c3=O)cc2)cc1` (centres undefined), the TGI in [1], in assay [2], in assay [3], in [4], in [5] and in [6] was > 100 µM each time. In addition, the TGI in assay [7], in assay [8], in [9], in assay [10], in assay [11] and in assay [12] was > 100 µM each time.
On to `CC12CCC(C(=O)O1)C(C)(C)O2` (centres undefined), for which the TGI in assay [1], in assay [2], in [3], in [4], in [5] and in assay [6] was > 100 µM throughout. Moreover, the TGI in [7], in assay [8], in assay [9], in [10], in [11] and in assay [12] was > 100 µM each time.
For `[Se]=P(c1ccccc1)(c1ccccc1)c1ccc(C(c2ccccc2)=P(c2ccccc2)(c2ccccc2)c2ccccc2)cc1`, the TGI in assay [1] was found to be 7.33 µM; in assay [2] it was 9.4 µM; in [3], 8.05 µM; in assay [4] it was 12.1 µM; in assay [5], 4.7 µM; in assay [6], 19.2 µM. For the same compound, the TGI in assay [7] was determined as 11.5 µM; in assay [8], 4.57 µM; in [9], 9.34 µM; in [10], 13 µM; in assay [11], 5.25 µM; in assay [12], 8.06 µM.
`ClC(Cl)(Cl)C1=N[C@H]2[C@H](Br)[C@@H]3O[C@@H](c4ccccc4)[C@H](c4ccccc4)O[C@@H]3[C@H]2O1`: the TGI was 50.1 µM in assay [1]; 31.3 µM in assay [2]; 41 µM in assay [3]; 40.5 µM in assay [4]; 39 µM in assay [5]; 44.8 µM in [6]. For the same compound, the TGI amounted to 35.5 µM in [7]; 38 µM in assay [8]; 30.4 µM in assay [9]; 49.2 µM in assay [10]; 31.2 µM in [11]; 31.3 µM in [12].
`O=C(CN1CCN(Cc2ccccc2)CC1)N1CCCn2c1nc1ccccc1c2=O`: the TGI in assay [1], in assay [2], in [3], in assay [4], in assay [5] and in assay [6] was > 100 µM in each case. Also, the TGI in assay [7], in assay [8], in assay [9], in [10], in assay [11] and in assay [12] was > 100 µM each time.
Consider `C/C(=N/NC(=S)Nc1ccccc1Cl)c1cccc(/C(C)=N\NC(=S)Nc2ccccc2Cl)n1`, for which the TGI in assay [1] was 75.2 µM; in assay [2], > 100 µM; in assay [3] it was > 100 µM; in assay [4], > 100 µM; in [5], 49.4 µM; in assay [6], > 100 µM. Besides, the TGI in assay [7], in [8], in assay [9], in assay [10], in assay [11] and in assay [12] was > 100 µM each time.
As to `CC(C(=O)ON1C(=O)CCC1=O)c1ccc(C(=O)c2ccccc2)s1` (centres undefined), the TGI in [1], in assay [2], in assay [3], in assay [4], in assay [5] and in [6] was > 100 µM throughout. Further, the TGI in assay [7], in assay [8], in [9], in assay [10], in assay [11] and in assay [12] was > 100 µM in each case.
As to `COC(=O)c1cc(NC(=O)c2cc(NC(=O)c3cc([N+](=O)[O-])cn3C)cn2C)cn1C`, the TGI in [1], in [2], in assay [3], in assay [4], in assay [5] and in assay [6] was > 100 µM throughout. For the same compound, the TGI in assay [7], in assay [8], in assay [9], in assay [10], in [11] and in [12] was > 100 µM in each case.
`C=CCOCn1cnc2c(N)ncnc21`: the TGI in assay [1], in assay [2], in assay [3], in [4], in [5] and in [6] was > 100 µM throughout. Besides, the TGI in assay [7], in assay [8], in assay [9], in [10], in [11] and in [12] was > 100 µM each time.
Consider `CN(C)c1ccc(/C=C2\N=C(NN)NC2=O)cc1`, for which the TGI in [1], in assay [2], in assay [3], in assay [4], in [5] and in assay [6] was > 100 µM in each case. For the same compound, the TGI in assay [7], in assay [8], in assay [9], in [10], in assay [11] and in [12] was > 100 µM throughout.
Consider `CN(C(=O)Cc1ccc(Cl)c(Cl)c1)[C@H]1CCCC[C@@H]1[N+]1(C)CCCC1`, for which the TGI in [1], in [2], in assay [3], in [4], in assay [5] and in assay [6] was > 100 µM throughout. In addition, the TGI in assay [7], in [8], in [9], in assay [10], in assay [11] and in [12] was > 100 µM in each case.
